Source: the supplement of paper PMC6965134
± gives the standard deviation of the averaged measurements.

Assay: TIMS collisional cross section (CCS, N2) of the lipid ion; higher = larger ion cross section
Conditions: ionization mode: positive, one isomer drawn

| SMILES | TIMS collisional cross section (sample type: HeLa) | TIMS collisional cross section (sample type: plasma) | TIMS collisional cross section (sample type: Liver) |
| --- | --- | --- | --- |
| CCCCCCCC/C=C\CCCCCCCC(=O)OC[C@@H](COC(=O)CCCCCCCCCCCCCC)OC(=O)CCCCCCCCCCCCCCC [TG 15:0_16:0_18:1] (ion (formula + adduct): [C52H98O6+NH4] 1+) | 315.2 Å² | 315.47 ± 0.058 Å² |  |
| CCCCC/C=C\C/C=C\CCCCCCCC(=O)OC[C@@H](COC(=O)CCCCCCCCCCCCCC)OC(=O)CCCCCCCCCCCCCCC [TG 15:0_16:0_18:2] (ion (formula + adduct): [C52H96O6+NH4] 1+) |  |  | 312.6 Å² |
| CCCCCCCCCCCCCCCCCCCCCC(=O)OC[C@@H](COC(=O)CCCCCCCCCCCCCC)OC(=O)CCCCCCCCCCCCCCC [TG 15:0_16:0_22:0] (ion (formula + adduct): [C56H108O6+NH4] 1+) |  | 328.3 Å² |  |
| CCCCCC/C=C\CCCCCCCC(=O)O[C@H](COC(=O)CCCCCCCCCCCCCC)COC(=O)CCCCCCCCCCCCCCCC [TG 15:0_16:1_17:0] (ion (formula + adduct): [C51H96O6+NH4] 1+) |  |  | 312.5 Å² |
| CCCCCC/C=C\CCCCCCCC(=O)O[C@@H](COC(=O)CCCCCCC/C=C\CCCCCCCC)COC(=O)CCCCCCCCCCCCCC [TG 15:0_16:1_18:1] (ion (formula + adduct): [C52H96O6+NH4] 1+) | 312.9 Å² | 312.8 ± 0.14 Å² |  |
| CCCCC/C=C\C/C=C\CCCCCCCC(=O)OC[C@@H](COC(=O)CCCCCCCCCCCCCC)OC(=O)CCCCCCC/C=C\CCCCCC [TG 15:0_16:1_18:2] (ion (formula + adduct): [C52H94O6+NH4] 1+) |  | 310.4 Å² | 310.7 ± 0.99 Å² |
| CCCCCCC/C=C\CCCCCCCC(=O)O[C@@H](COC(=O)CCCCCCC/C=C\CCCCCCCC)COC(=O)CCCCCCCCCCCCCC [TG 15:0_17:1_18:1] (ion (formula + adduct): [C53H98O6+NH4] 1+) | 315.9 Å² |  |  |
| CCCCC/C=C\C/C=C\CCCCCCCC(=O)OC[C@@H](COC(=O)CCCCCCCCCCCCCC)OC(=O)CCCCCCC/C=C\CCCCCCCC [TG 15:0_18:1_18:2] (ion (formula + adduct): [C54H98O6+NH4] 1+) |  | 316.6 Å² |  |
| CCCCC/C=C\C/C=C\C/C=C\CCCCC(=O)OC[C@@H](COC(=O)CCCCCCCCCCCCCC)OC(=O)CCCCCCC/C=C\C/C=C\CCCCC [TG 15:0_18:2_18:3] (ion (formula + adduct): [C54H94O6+NH4] 1+) |  | 312.8 Å² | 312.7 Å² |
| CCCCC/C=C\CCCCCCCC(=O)OC[C@H](COC(=O)CCCCCCCCCCCCCCC)OC(=O)CCCCCCCCCCCCCCC [TG 15:1_16:0_16:0] (ion (formula + adduct): [C50H94O6+NH4] 1+) |  |  | 309.7 Å² |
| CCCCC/C=C\CCCCCCCC(=O)OC[C@H](COC(=O)CCCCCCC/C=C\CCCCCC)OC(=O)CCCCCCCCCCCCCCC [TG 15:1_16:0_16:1] (ion (formula + adduct): [C50H92O6+NH4] 1+) |  | 307.1 Å² | 307.4 Å² |
| CCCCC/C=C\C/C=C\CCCCCCCC(=O)OC[C@@H](COC(=O)CCCCCCC/C=C\CCCCC)OC(=O)CCCCCCCCCCCCCCC [TG 15:1_16:0_18:2] (ion (formula + adduct): [C52H94O6+NH4] 1+) |  | 311 Å² |  |
| CCCCC/C=C\CCCCCCCC(=O)OC[C@H](COC(=O)CCCCCCC/C=C\CCCCCC)OC(=O)CCCCCCC/C=C\CCCCCC [TG 15:1_16:1_16:1] (ion (formula + adduct): [C50H90O6+NH4] 1+) | 305 Å² |  |  |
| CCCCC/C=C\CCCCCCCC(=O)OC[C@H](COC(=O)CCCCCCCCCCCCCCCC)OC(=O)CCCCCCC/C=C\CCCCCC [TG 15:1_16:1_17:0] (ion (formula + adduct): [C51H94O6+NH4] 1+) |  |  | 309.9 Å² |
| CCCCC/C=C\CCCCCCCC(=O)OC[C@H](COC(=O)CCCCCCC/C=C\CCCCCCC)OC(=O)CCCCCCC/C=C\CCCCCC [TG 15:1_16:1_17:1] (ion (formula + adduct): [C51H92O6+NH4] 1+) |  |  | 308.7 Å² |
| CCCCC/C=C\CCCCCCCC(=O)OC[C@H](COC(=O)CCCCCCC/C=C\CCCCCCCC)OC(=O)CCCCCCC/C=C\CCCCCC [TG 15:1_16:1_18:1] (ion (formula + adduct): [C52H94O6+NH4] 1+) | 310.8 Å² |  | 312.2 Å² |
| CCCCC/C=C\C/C=C\CCCCCCCC(=O)OC[C@@H](COC(=O)CCCCCCC/C=C\CCCCC)OC(=O)CCCCCCC/C=C\CCCCCC [TG 15:1_16:1_18:2] (ion (formula + adduct): [C52H92O6+NH4] 1+) | 308.4 Å² |  |  |
| C(OC(=O)CCCCCCCCCCCCCCC)[C@]([H])(OC(CCCCCCCCCCCCCCC)=O)COC(CCCCCCCCCCCCCCC)=O [TG 16:0_16:0_16:0] (ion (formula + adduct): [C51H98O6+NH4] 1+) |  | 314.45 ± 0.21 Å² |  |

| SMILES | TIMS collisional cross section (sample type: HeLa) | TIMS collisional cross section (sample type: plasma) | TIMS collisional cross section (sample type: Liver) |
| --- | --- | --- | --- |
| CCCCCC/C=C\CCCCCCCC(=O)OC[C@@H](COC(=O)CCCCCCCCCCCCCCC)OC(=O)CCCCCCCCCCCCCCC [TG 16:0_16:0_16:1] (ion (formula + adduct): [C51H96O6+NH4] 1+) | 311.7 Å² |  |  |
| CCCCCCCCCCCCCCCCC(=O)OC[C@@H](COC(=O)CCCCCCCCCCCCCCC)OC(=O)CCCCCCCCCCCCCCC [TG 16:0_16:0_17:0] (ion (formula + adduct): [C52H100O6+NH4] 1+) | 317.5 Å² | 317.6 Å² | 317.6 Å² |
| CCCCCCC/C=C\CCCCCCCC(=O)OC[C@@H](COC(=O)CCCCCCCCCCCCCCC)OC(=O)CCCCCCCCCCCCCCC [TG 16:0_16:0_17:1] (ion (formula + adduct): [C52H98O6+NH4] 1+) |  |  | 315.2 Å² |
| CCCCCCCCCCCCCCCCCC(=O)OC[C@@H](COC(=O)CCCCCCCCCCCCCCC)OC(=O)CCCCCCCCCCCCCCC [TG 16:0_16:0_18:0] (ion (formula + adduct): [C53H102O6+NH4] 1+) | 319.9 Å² | 320.25 ± 0.35 Å² | 320.7 Å² |
| CCCCCC/C=C/CCCCCCCCCC(=O)OC[C@@H](COC(=O)CCCCCCCCCCCCCCC)OC(=O)CCCCCCCCCCCCCCC [TG 16:0_16:0_18:1] (ion (formula + adduct): [C53H100O6+NH4] 1+) | 318.75 ± 0.21 Å² | 318.4 Å² |  |
| CCCCCCCCC/C=C\CCCCCCCC(=O)OC[C@@H](COC(=O)CCCCCCCCCCCCCCC)OC(=O)CCCCCCCCCCCCCCC [TG 16:0_16:0_19:1] (ion (formula + adduct): [C54H102O6+NH4] 1+) | 321.5 Å² |  |  |
| CCCCCCCC/C=C\CCCCCCCCCC(=O)OC[C@@H](COC(=O)CCCCCCCCCCCCCCC)OC(=O)CCCCCCCCCCCCCCC [TG 16:0_16:0_20:1] (ion (formula + adduct): [C55H104O6+NH4] 1+) | 324.7 Å² |  |  |
| CCCCC/C=C\C/C=C\C/C=C\C/C=C\CCCC(=O)OC[C@@H](COC(=O)CCCCCCCCCCCCCCC)OC(=O)CCCCCCCCCCCCCCC [TG 16:0_16:0_20:4] (ion (formula + adduct): [C55H98O6+NH4] 1+) | 320.5 Å² |  |  |
| CC/C=C\C/C=C\C/C=C\C/C=C\C/C=C\CCCC(=O)OC[C@@H](COC(=O)CCCCCCCCCCCCCCC)OC(=O)CCCCCCCCCCCCCCC [TG 16:0_16:0_20:5] (ion (formula + adduct): [C55H96O6+Na] 1+) |  |  | 314.5 Å² |
| CC/C=C\C/C=C\C/C=C\C/C=C\C/C=C\C/C=C\CCC(=O)OC[C@@H](COC(=O)CCCCCCCCCCCCCCC)OC(=O)CCCCCCCCCCCCCCC [TG 16:0_16:0_22:6] (ion (formula + adduct): [C57H98O6+NH4] 1+) | 324 Å² |  |  |
| CCCCCC/C=C\CCCCCCCC(=O)OC[C@@H](COC(=O)CCCCCCCCCCCCCCC)OC(=O)CCCCCCC/C=C\CCCCCC [TG 16:0_16:1_16:1] (ion (formula + adduct): [C51H94O6+NH4] 1+) |  |  | 310.2 Å² |
| CCCCCC/C=C\CCCCCCCC(=O)O[C@H](COC(=O)CCCCCCCCCCCCCCC)COC(=O)CCCCCCCCCCCCCCCC [TG 16:0_16:1_17:0] (ion (formula + adduct): [C52H98O6+NH4] 1+) | 315.8 Å² |  |  |
| CCCCCC/C=C\CCCCCCCC(=O)O[C@@H](COC(=O)CCCCCCC/C=C\CCCCCCC)COC(=O)CCCCCCCCCCCCCCC [TG 16:0_16:1_17:1] (ion (formula + adduct): [C52H96O6+NH4] 1+) |  | 313.2 Å² |  |
| CCCCCC/C=C\CCCCCCCC(=O)O[C@@H](COC(=O)CCCCCCC/C=C\CCCCCCCC)COC(=O)CCCCCCCCCCCCCCC [TG 16:0_16:1_18:1] (ion (formula + adduct): [C53H98O6+NH4] 1+) | 315.9 Å² | 315.8 ± 0.27 Å² | 315.95 ± 0.53 Å² |
| CCCCC/C=C\C/C=C\CCCCCCCC(=O)OC[C@@H](COC(=O)CCCCCCCCCCCCCCC)OC(=O)CCCCCCC/C=C\CCCCCC [TG 16:0_16:1_18:2] (ion (formula + adduct): [C53H96O6+NH4] 1+) | 314.4 Å² | 313.6 ± 0.44 Å² | 313.45 ± 0.55 Å² |
| CC/C=C\C/C=C\C/C=C\C/C=C\C/C=C\CCCCCC(=O)OC[C@@H](COC(=O)CCCCCCCCCCCCCCC)OC(=O)CCCCCCC/C=C\CCCCCC [TG 16:0_16:1_22:5] (ion (formula + adduct): [C57H98O6+NH4] 1+) | 321.9 Å² |  |  |
| CC/C=C\C/C=C\C/C=C\C/C=C\C/C=C\C/C=C\CCC(=O)OC[C@@H](COC(=O)CCCCCCCCCCCCCCC)OC(=O)CCCCCCC/C=C\CCCCCC [TG 16:0_16:1_22:6] (ion (formula + adduct): [C57H96O6+NH4] 1+) | 321.4 Å² |  |  |
